Test results from ChEMBL document CHEMBL5113472, “Structure-activity relationship studies of [1,2,5]oxadiazolo[3,4-b]pyrazine-containing polymyxin-selective resistance-modifying agents” (Bioorg Med Chem Lett, 2022).
Converted amounts (≈) assume the structure as drawn.

Assays:
Escherichia coli [1] = assay: Antibacterial activity against Escherichia coli AR0493 harboring mcr-1 plasmid assessed as inhibition of bacterial growth; format: functional
Escherichia coli [2] = assay: Antibacterial activity against Escherichia coli AR0538 harboring mcr-2 plasmid assessed as inhibition of bacterial growth; format: functional, organism-based
Salmonella typhimurium [3] = assay: Antibacterial activity against Salmonella Typhimurium AR0539 harboring mcr-3 plasmid assessed as inhibition of bacterial growth; format: functional, organism-based; conditions: Salmonella enterica subsp. enterica serovar Typhimurium
Salmonella typhimurium [4] = assay: Antibacterial activity against Salmonella Typhimurium AR0635 harboring mcr-4 plasmid assessed as inhibition of bacterial growth; format: functional, organism-based; conditions: Salmonella enterica subsp. enterica serovar Typhimurium
Klebsiella pneumoniae [5] = assay: Antibacterial activity against Klebsiella pneumoniae AR0497 harboring mcr-1 plasmid assessed as inhibition of bacterial growth; format: functional, organism-based
Acinetobacter baumannii [6] = assay: Antibacterial activity against Acinetobacter baumannii AR0310 assessed as inhibition of bacterial growth; format: functional, organism-based
Pseudomonas aeruginosa [7] = assay: Antibacterial activity against Pseudomonas aeruginosa AR0239 assessed as inhibition of bacterial growth; format: functional, organism-based
Pseudomonas aeruginosa [8] = assay: Antibacterial activity against Pseudomonas aeruginosa AR0257 assessed as inhibition of bacterial growth; format: functional, organism-based
Escherichia coli [9] = assay: Potentiation of colistin-induced antibacterial activity against Escherichia coli AR0493 harboring mcr-1 plasmid assessed as minimum resensitizing concentration; format: functional
[10] = Cytotoxicity against human HeLa cells assessed as inhibition of cell growth by cell viability assay; format: toxicity, cell-based
[11] = Selectivity index, ratio of GI50 for cytotoxicity against human HeLa cells to MRC for Potentiation of colistin-induced antibacterial activity against Escherichia coli AR0493 harboring mcr-1 plasmid; format: toxicity, cell-based; conditions: read-out: Selectivity Index
Escherichia coli [12] = assay: Potentiation of colistin-induced antibacterial activity against Escherichia coli AR0493 harboring mcr-1 plasmid assessed as colistin MIC at 1 ug/ml; format: functional; conditions: dose 1 µg/ml
Escherichia coli [13] = assay: Potentiation of colistin-induced antibacterial activity against Escherichia coli AR0538 harboring mcr-2 plasmid assessed as colistin MIC at 1 ug/ml; format: functional; conditions: dose 1 µg/ml
Salmonella typhimurium [14] = assay: Potentiation of colistin-induced antibacterial activity against Salmonella Typhimurium AR0539 harboring mcr-3 plasmid assessed as colistin MIC at 1 ug/ml; format: functional, Salmonella enterica subsp. enterica serovar Typhimurium; conditions: Salmonella enterica, dose 1 µg/ml
Salmonella typhimurium [15] = assay: Potentiation of colistin-induced antibacterial activity against Salmonella Typhimurium AR0635 harboring mcr-4 plasmid assessed as colistin MIC at 1 ug/ml; format: functional, Salmonella enterica subsp. enterica serovar Typhimurium; conditions: Salmonella enterica, dose 1 µg/ml
Klebsiella pneumoniae [16] = assay: Potentiation of colistin-induced antibacterial activity against Klebsiella pneumoniae AR0497 harboring mcr-1 plasmid assessed as colistin MIC at 1 ug/ml; format: functional; conditions: dose 1 µg/ml
Acinetobacter baumannii [17] = assay: Potentiation of colistin-induced antibacterial activity against Acinetobacter baumannii AR0310 assessed as colistin MIC at 1 ug/ml; format: functional; conditions: dose 1 µg/ml
Pseudomonas aeruginosa [18] = assay: Potentiation of colistin-induced antibacterial activity against Pseudomonas aeruginosa AR0239 assessed as colistin MIC at 1 ug/ml; format: functional; conditions: dose 1 µg/ml
Pseudomonas aeruginosa [19] = assay: Potentiation of colistin-induced antibacterial activity against Pseudomonas aeruginosa AR0257 assessed as colistin MIC at 1 ug/ml; format: functional; conditions: dose 1 µg/ml

Compound | MIC (Escherichia coli [1]) | MRC (Escherichia coli [9]) | GI50 [10] | selectivity ratio [11] | also measured
COLISTIN | 8 µg/mL | – | – | – | MIC (Escherichia coli [2]): 8 µg/mL; MIC (Salmonella typhimurium [3]): 8 µg/mL; MIC (Salmonella typhimurium [4]): 32 µg/mL; MIC (Klebsiella pneumoniae [5]): 8 µg/mL; MIC (Acinetobacter baumannii [6]): 32 µg/mL; MIC (Pseudomonas aeruginosa [7]): 4 µg/mL; MIC (Pseudomonas aeruginosa [8]): 8 µg/mL
Cc1cccc(Nc2nc3nonc3nc2Nc2cccc(OC(F)(F)F)c2)c1 | > 64 µg/mL | 0.5 µg/mL | 12 µg/mL (≈ 29.8 µM) | 24 | –
Fc1ccc(Nc2nc3nonc3nc2Nc2ccc(F)cc2)cc1 | > 64 µg/mL | 0.5 µg/mL | 9.4 µg/mL (≈ 27.6 µM) | 19 | –
COc1cccc(Nc2nc3nonc3nc2Nc2cccc(OC)c2)c1 | – | 2 µg/mL | – | – | –
Oc1nc2nonc2nc1Nc1ccc(F)cc1 | – | 32 µg/mL | – | – | –
Oc1nc2nonc2nc1Nc1ccc(Cl)cc1 | – | 32 µg/mL | – | – | –
O=c1[nH]c2nonc2nc1Nc1cccc(Cl)c1 | – | 16 µg/mL | – | – | –
c1ccc(Nc2nc3nonc3nc2Nc2ccccc2)cc1 | > 64 µg/mL | 0.5 µg/mL | 4.4 µg/mL (≈ 14.5 µM) | 8.8 | –
Cc1cccc(Nc2nc3nonc3nc2Nc2cccc(C)c2)c1 | > 64 µg/mL | 0.5 µg/mL | 15 µg/mL (≈ 45.1 µM) | 30 | –
FC(F)(F)Oc1cccc(Nc2nc3nonc3nc2Nc2ccccc2)c1 | – | 1 µg/mL | – | – | –
COc1cccc(Nc2nc3nonc3nc2O)c1 | – | 16 µg/mL | – | – | –
COc1ccc(Nc2nc3nonc3nc2Nc2ccc(OC)cc2)cc1 | – | >64 µg/mL | – | – | –
Cc1ccc(Nc2nc3nonc3nc2O)cc1 | – | 64 µg/mL | – | – | –
Clc1cccc(Nc2nc3nonc3nc2Nc2cccc(Cl)c2)c1 | > 64 µg/mL | – | 11 µg/mL (≈ 29.5 µM) | 44 | MIC (Escherichia coli [12]): 1 µg/mL; MIC (Escherichia coli [13]): 1 µg/mL; MIC (Salmonella typhimurium [14]): 1 µg/mL; MIC (Salmonella typhimurium [15]): 1 µg/mL; MIC (Klebsiella pneumoniae [16]): 1 µg/mL; MIC (Acinetobacter baumannii [17]): 0.25 µg/mL; MIC (Pseudomonas aeruginosa [18]): 1 µg/mL; MIC (Pseudomonas aeruginosa [19]): 2 µg/mL
Oc1nc2nonc2nc1Nc1ccccc1F | – | 64 µg/mL | – | – | –
Oc1nc2nonc2nc1Nc1ccccc1OC(F)(F)F | – | >64 µg/mL | – | – | –
COc1ccc(Nc2nc3nonc3nc2O)cc1 | – | >64 µg/mL | – | – | –
COc1ccccc1Nc1nc2nonc2nc1O | > 64 µg/mL | 4 µg/mL | > 100 µg/mL | > 25 | –

Compound | MIC (Escherichia coli [1]) | MRC (Escherichia coli [9]) | GI50 [10] | selectivity ratio [11] | also measured
Cc1ccccc1Nc1nc2nonc2nc1Nc1ccccc1C | – | 8 µg/mL | – | – | –
Oc1nc2nonc2nc1Nc1ccccc1Cl | – | 16 µg/mL | – | – | –
FC(F)(F)Oc1ccc(Nc2nc3nonc3nc2Nc2ccc(OC(F)(F)F)cc2)cc1 | > 64 µg/mL | 0.25 µg/mL | 5.7 µg/mL (≈ 12.1 µM) | 23 | –
COc1ccccc1Nc1nc2nonc2nc1Nc1cccc(OC(F)(F)F)c1 | – | >64 µg/mL | – | – | –
Fc1cccc(Nc2nc3nonc3nc2Nc2cccc(F)c2)c1 | > 64 µg/mL | 0.5 µg/mL | 20 µg/mL (≈ 58.8 µM) | 40 | –
Cc1cccc(Nc2nc3nonc3nc2O)c1 | – | 8 µg/mL | – | – | –
FC(F)(F)Oc1cccc(Nc2nc3nonc3nc2Nc2cccc(OC(F)(F)F)c2)c1 | > 64 µg/mL | 0.25 µg/mL | 4.3 µg/mL (≈ 9.1 µM) | 17 | –
Clc1ccccc1Nc1nc2nonc2nc1Nc1ccccc1Cl | – | 8 µg/mL | – | – | –
Cc1ccccc1Nc1nc2nonc2nc1O | – | 64 µg/mL | – | – | –
Oc1nc2nonc2nc1Nc1cccc(F)c1 | – | 64 µg/mL | – | – | –
Oc1nc2nonc2nc1Nc1ccccc1 | – | >64 µg/mL | – | – | –
Cc1ccc(Nc2nc3nonc3nc2Nc2ccc(C)cc2)cc1 | > 64 µg/mL | 0.5 µg/mL | 11 µg/mL (≈ 33.1 µM) | 22 | –
FC(F)(F)Oc1ccccc1Nc1nc2nonc2nc1Nc1ccccc1OC(F)(F)F | – | >64 µg/mL | – | – | –
Oc1nc2nonc2nc1Nc1ccc(OC(F)(F)F)cc1 | – | 16 µg/mL | – | – | –
COc1ccccc1Nc1nc2nonc2nc1Nc1ccccc1OC | – | >64 µg/mL | – | – | –
Clc1ccc(Nc2nc3nonc3nc2Nc2ccc(Cl)cc2)cc1 | > 64 µg/mL | 0.5 µg/mL | 28 µg/mL (≈ 75 µM) | 56 | MIC (Escherichia coli [12]): 1 µg/mL; MIC (Escherichia coli [13]): 2 µg/mL; MIC (Salmonella typhimurium [14]): 2 µg/mL; MIC (Salmonella typhimurium [15]): 1 µg/mL; MIC (Klebsiella pneumoniae [16]): 1 µg/mL; MIC (Acinetobacter baumannii [17]): 0.25 µg/mL; MIC (Pseudomonas aeruginosa [18]): 1 µg/mL; MIC (Pseudomonas aeruginosa [19]): 2 µg/mL
Oc1nc2nonc2nc1Nc1cccc(OC(F)(F)F)c1 | > 64 µg/mL | 4 µg/mL | 24 µg/mL (≈ 76.6 µM) | 6 | –
